According to US9326451B1, “Seed pillow for overcoming the limiting factors controlling rangeland reseeding success” (The United States of America, as represented by the …, priority 2012, dated 2016):

Experiments:
[1] = test system: cheatgrass (Bromus tectorum L.); assay: Example 4: cheatgrass control by imazapic, pot study; format: in vivo
Description: (§1) In this study, bluebunch wheatgrass was either left untreated, coated with activated carbon, or incorporated into a seed-pillow containing activated carbon. Source of activated carbon used in the study was Nuchar® powdered activated carbon (MWV, Richmond, Va.). Seeds were coated with activated carbon according to U.S. Patent application 2010/0093535. Seed pillows were formed by mixing dough containing by weight 22% activated carbon, 18.6% diatomaceous earth, 57.9% SELVOL-205 solution with 1% solids, and 1.2% seed. Pellets were extruded and cut into 3 mm thick hexagon pellets that were 13 mm in diameter, with each pillow containing eight pure live seeds.
(§2) Bluebunch wheatgrass and cheatgrass were sown in 14×14 cm pots at 500 pure live seeds m-2, and 1000 seeds m-2, respectively. After planting, pots were sprayed with 4, 6, 8, or 12 oz/acre of the pre-emergent herbicide imazapic, or left unsprayed. The study was arranged in a randomized block design with 8 replicates per treatment.

downy brome = assay: Example 6: downy brome control by imazapic, grow-room pot study; format: in vivo
Protocol: (§3) Soil was obtained from a Wyoming big sagebrush (Artemisia tridentata Nutt. ssp. wyomingensis [Beetle & A. Young] S. L. Welsh)-steppe community type, located at the Northern Great Basin Experimental Range, 16-km southwest of Riley, Oreg. (43° 32′N, 118° 9′ W). Soil on the site has a silt-loam texture and is classified as a fine-loamy, mixed, frigid Aridic Haploxeroll (Soil Survey Staff 2012). Soil was excavated from a maximum depth of 25-cm, with the top 2-cm of soil and litter discarded to remove existing seeds. Excavated soil was used to fill square 14-cm wide by 14-cm deep growing pots that were placed in a grow-room at the Eastern Oregon Agriculture Research Center, located in Burns, Oreg., USA.
Species used in the study included the native bunchgrass ‘Anatone’ bluebunch wheatgrass and the non-native annual weed downy brome. Bluebunch wheatgrass was chosen because it is often a major component of native plant communities in the sage-steppe ecosystem of western North America, is commonly used in rangeland seeding efforts (see e.g., Ogle et al. 2010 Plant guide for bluebunch wheatgrass (Pseudoroegneria spicata). USDA-Natural Resources Conservation Service. Idaho and Washington Plant Materials Program. 5 p). Like many grasses used for restoration, bluebunch wheatgrass is injured by imazapic applied at rates required for downy brome control (see e.g., Shinn and Thill 2004 Weed Technology 18:60-65). Germination potential of bluebunch wheatgrass and downy brome was 92% and 98%, respectively (as tested on blue blotter paper in 130-mm diameter petri dishes, with 25 seeds·dish−1 replicated four times per species).
Bluebunch wheatgrass seeds were untreated, coated with activated carbon, or incorporated into HPPs containing activated carbon. Pots with the sown seeds were sprayed with 0, 70, 105, 140, or 210 g acid equivalent (ae)·ha−1 (0, 4, 6, 8, or 12 oz·acre−1) of the pre-emergent herbicide imazapic (Panoramic 2SL, Alligare LLC, Opelika, Ala.), (3 seed treatments×5 herbicide application rates=15 experimental treatments). The study was arranged in a randomized complete block design with 8 replicates per treatment.
Each pot was seeded with 20 PLS (1000 PLS·m−2) of downy brome, and 10 PLS (500 PLS·m−2) of bluebunch wheatgrass. Two pods were added to each pot designated to receive HPPs. […] Response variables recorded at the conclusion of the study included: 1) plant density, 2) shoot height, and 3) oven dried (65° C. for 72-hrs) aboveground biomass.
Bluebunch wheatgrass and downy brome response data were analyzed separately in SAS (Version 9.3; SAS Institute, Cary, N.C.) using a two-way randomized complete block analysis of variance (ANOVA; Proc Mixed). […] Significance was determined at P<0.05.

bluebunch wheatgrass [2] = test system: bluebunch wheatgrass; set-up: species or system Pseudoroegneria spicata; details: in vivo
Description: as §1, §2

bluebunch wheatgrass [3] = test system: bluebunch wheatgrass; set-up: species or system Pseudoroegneria spicata; details: in vivo; remark: listed apart in the source
Description: (§4) The following example illustrates the ability of seed pillows to protect seeds from soil-active herbicide and use of beneficial biostimulants and super-absorbent polymer. In the study, treatments included untreated seed and four seed pillow treatments, including seed incorporated into a pillow containing 1) activated carbon, 2) activated carbon plus biostimulants, 3) activated carbon plus super-absorbent polymer, and 4) activated carbon plus biostimulants and super-absorbent polymer. Pellets were extruded and cut into 3 mm thick hexagon pellets that were 13 mm in diameter, with each pillow containing eight pure live seeds.
(§5) Bluebunch wheatgrass and cheatgrass were sown in 14×14 cm pots at 500 pure live seeds m-2, and 1000 seeds m-2, respectively. After planting, half of the pots in the study were sprayed with 8 oz/acre of the pre-emergent herbicide imazapic, or left unsprayed. The study was arranged in a randomized block design with 8 replicates per treatment.

[4] = test system: 'Anatone' bluebunch wheatgrass; details: in vivo
Protocol: as §3
Species used in the study included the native bunchgrass ‘Anatone’ bluebunch wheatgrass and the non-native annual weed downy brome. Bluebunch wheatgrass was chosen because it is often a major component of native plant communities in the sage-steppe ecosystem of western North America, is commonly used in rangeland seeding efforts (see e.g., Ogle et al. 2010 Plant guide for bluebunch wheatgrass (Pseudoroegneria spicata). USDA-Natural Resources Conservation Service. Idaho and Washington Plant Materials Program. 5 p). […]

cheatgrass = assay: Example 5: cheatgrass control by imazapic, pot study; format: in vivo, Bromus tectorum; details: 8 oz/acre, pre-emergent spray after planting
Description: as §4, §5

[5] = averaged across the study, 47 days

## Cc1cnc(C2=NC(=O)C(C)(C(C)C)N2)c(C(=O)O)c1 (centres unmarked) [imazapic]
[1]; all application rates (4, 6, 8, 12 oz/acre)
  control of cheatgrass growth: effectively controlled
[1]; imazapic at 8 oz/acre, bluebunch seed in activated carbon pillow
  cheatgrass growth (FIG. 3C): suppressed
[1]; soil treated at 10 oz/acre
  cheatgrass growth (FIG. 3B): growth was arrested
Downy brome; all application rates (70, 105, 140, 210 g ae·ha−1)
  control of downy brome: effectively controlled
Downy brome; [5]
  reduction of downy brome biomass: 140.2 fold
  reduction of downy brome density: 6.6 fold
  reduction of downy brome height: 8.0 fold
Bluebunch wheatgrass [2]
  bluebunch wheatgrass growth, untreated seed (FIG. 3B): growth was arrested
Bluebunch wheatgrass [3]
  effect on non-treated bluebunch wheatgrass seed: effectively controlled
[4]
  effect on untreated bluebunch wheatgrass: impaired
cheatgrass
  control of cheatgrass growth: effectively controlled
